According to PubChem BioAssay AID1963432 (Molecular Pharmacology Branch, DTP, NCI, 2024):
pIC50: −log10 of the molar value.

Test system: SYO-1 complex spheroid growth, percent test/control
Assay: Anticancer human tumor SYO-1 cell line growth inhibition [Asc];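 further: compound exposure lasted 7 days after spheroids grew 3 days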;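 on viability, T/C: 100% = DMSO vehicle control viability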
Settings: for pIC50: curve of first compound; for viability, T/C: stronger effect = lower value; active means viability on the fitted dose curve at most 10% of control; inactive means the rest
Method in brief: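 Complex spheroids combining tumor cells with HUVEC endothelial cells and human MSCs, at 37 degrees C, 5% CO2; agents tested alone or combined, half-log dilutions from at or near clinical Cmax, or 10 microM if Cmax unknown.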

[1] = second compound 0.01 µM, first compound 0.0316 µM
[2] = second compound 0.01 µM, first compound 0.1 µM
[3] = second compound 0.01 µM, first compound 0.316 µM
[4] = second compound 0.01 µM, first compound 1 µM
[5] = second compound 0.01 µM, first compound 3.16 µM
[6] = second compound 0.01 µM, first compound 10 µM
[7] = second compound 0.0316 µM, first compound 0.0316 µM
[8] = second compound 0.0316 µM, first compound 0.1 µM
[9] = second compound 0.0316 µM, first compound 0.316 µM
[10] = second compound 0.0316 µM, first compound 1 µM
[11] = second compound 0.0316 µM, first compound 3.16 µM
[12] = second compound 0.0316 µM, first compound 10 µM
[13] = second compound 0.1 µM, first compound 0.0316 µM
[14] = second compound 0.1 µM, first compound 0.1 µM
[15] = second compound 0.1 µM, first compound 0.316 µM
[16] = second compound 0.1 µM, first compound 1 µM
[17] = second compound 0.1 µM, first compound 3.16 µM
[18] = second compound 0.1 µM, first compound 10 µM
[19] = second compound 0.316 µM, first compound 0.0316 µM
[20] = second compound 0.316 µM, first compound 0.1 µM
[21] = second compound 0.316 µM, first compound 0.316 µM
[22] = second compound 0.316 µM, first compound 1 µM
[23] = second compound 0.316 µM, first compound 3.16 µM
[24] = second compound 0.316 µM, first compound 10 µM
[25] = second compound 1 µM, first compound 0.0316 µM
[26] = second compound 1 µM, first compound 0.1 µM
[27] = second compound 1 µM, first compound 0.316 µM
[28] = second compound 1 µM, first compound 1 µM
[29] = second compound 1 µM, first compound 3.16 µM
[30] = second compound 1 µM, first compound 10 µM

C=C(F)C(=O)N1CCN(c2nc(OCC3CCCN3C)nc3c2CCN(c2cccc4cccc(Cl)c24)C3)CC1CC#N (configuration not stated) + CNC(C)C(=O)NC1CN(S(=O)(=O)c2cccc(S(=O)(=O)N3CCC4CCC(C(=O)NC(c5ccccc5)c5ccccc5)N4C(=O)C(NC(=O)C(C)NC)C3)c2)CCC2CCC(C(=O)NC(c3ccccc3)c3ccccc3)N2C1=O
5.26: pIC50 (second compound 0.316 µM)
5.27: pIC50 (second compound 1 µM)
5.25: pIC50 (second compound 0.01 µM) | pIC50 (second compound 0.0316 µM) | pIC50 (second compound 0.1 µM)
active: viability, T/C [6] 0.23% | viability, T/C [12] 0.22% | viability, T/C [18] 0.21% | viability, T/C [24] 0.23% | viability, T/C [30] 0.26%
inactive: viability, T/C [1] 99.1% | viability, T/C [2] 113% | viability, T/C [3] 104% | viability, T/C [4] 99.7% | viability, T/C [5] 101% | viability, T/C [7] 96.7% | viability, T/C [8] 103% | viability, T/C [9] 101% | viability, T/C [10] 98.3% | viability, T/C [11] 99% | viability, T/C [13] 100% | viability, T/C [14] 105% | viability, T/C [15] 95% | viability, T/C [16] 97.2% | viability, T/C [17] 98.6% | viability, T/C [19] 98.5% | viability, T/C [20] 103% | viability, T/C [21] 103% | viability, T/C [22] 88.7% | viability, T/C [23] 95% | viability, T/C [25] 104% | viability, T/C [26] 104% | viability, T/C [27] 101% | viability, T/C [28] 94.2% | viability, T/C [29] 92.3%

C=CC(=O)N1CCN(c2nc(=O)n(-c3c(C)ccnc3C(C)C)c3nc(-c4c(O)cccc4F)c(F)cc23)C(C)C1 (configuration not stated) + CNC(C)C(=O)NC1CN(S(=O)(=O)c2cccc(S(=O)(=O)N3CCC4CCC(C(=O)NC(c5ccccc5)c5ccccc5)N4C(=O)C(NC(=O)C(C)NC)C3)c2)CCC2CCC(C(=O)NC(c3ccccc3)c3ccccc3)N2C1=O
< 5.00: pIC50 (second compound 0.01 µM) | pIC50 (second compound 0.0316 µM) | pIC50 (second compound 0.1 µM) | pIC50 (second compound 0.316 µM) | pIC50 (second compound 1 µM)
inactive: viability, T/C [1] 104% | viability, T/C [2] 105% | viability, T/C [3] 101% | viability, T/C [4] 102% | viability, T/C [5] 90.3% | viability, T/C [6] 83.6% | viability, T/C [7] 97.4% | viability, T/C [8] 94.5% | viability, T/C [9] 99.4% | viability, T/C [10] 97.2% | viability, T/C [11] 87.3% | viability, T/C [12] 86.2% | viability, T/C [13] 88.3% | viability, T/C [14] 94.3% | viability, T/C [15] 100% | viability, T/C [16] 92.5% | viability, T/C [17] 98.1% | viability, T/C [18] 85.4% | viability, T/C [19] 96.6% | viability, T/C [20] 98% | viability, T/C [21] 97.5% | viability, T/C [22] 93.5% | viability, T/C [23] 87.4% | viability, T/C [24] 89.6% | viability, T/C [25] 98.1% | viability, T/C [26] 98.1% | viability, T/C [27] 93.1% | viability, T/C [28] 95.8% | viability, T/C [29] 93.5% | viability, T/C [30] 88%

CCN1C(C(=O)NC23CCC(C(=O)O)(CC2)CC3)C(c2cccc(Cl)c2F)C2(C(=O)Nc3cc(Cl)ccc32)C12CCCCC2 (configuration not stated) + CNC(C)C(=O)NC1CN(S(=O)(=O)c2cccc(S(=O)(=O)N3CCC4CCC(C(=O)NC(c5ccccc5)c5ccccc5)N4C(=O)C(NC(=O)C(C)NC)C3)c2)CCC2CCC(C(=O)NC(c3ccccc3)c3ccccc3)N2C1=O
6.96: pIC50 (second compound 0.1 µM)
inactive: viability, T/C (second compound 0.01 µM, first compound 0.00949 µM) 104% | viability, T/C (second compound 0.01 µM, first compound 0.03 µM) 95% | viability, T/C (second compound 0.01 µM, first compound 0.0949 µM) 71.8% | viability, T/C (second compound 0.01 µM, first compound 0.3 µM) 13.8% | viability, T/C (second compound 0.0316 µM, first compound 0.00949 µM) 98.9% | viability, T/C (second compound 0.0316 µM, first compound 0.03 µM) 96.6% | viability, T/C (second compound 0.0316 µM, first compound 0.0949 µM) 60.3% | viability, T/C (second compound 0.1 µM, first compound 0.00949 µM) 99.2% | viability, T/C (second compound 0.1 µM, first compound 0.03 µM) 90.2% | viability, T/C (second compound 0.1 µM, first compound 0.0949 µM) 56.5% | viability, T/C (second compound 0.1 µM, first compound 0.3 µM) 10.5% | viability, T/C (second compound 0.316 µM, first compound 0.00949 µM) 102% | viability, T/C (second compound 0.316 µM, first compound 0.03 µM) 89.8% | viability, T/C (second compound 0.316 µM, first compound 0.0949 µM) 59.6% | viability, T/C (second compound 0.316 µM, first compound 0.3 µM) 8.45% | viability, T/C (second compound 1 µM, first compound 0.00949 µM) 112% | viability, T/C (second compound 1 µM, first compound 0.03 µM) 88.9% | viability, T/C (second compound 1 µM, first compound 0.0949 µM) 54.7% | viability, T/C (second compound 1 µM, first compound 0.3 µM) 5.93%
6.94: pIC50 (second compound 0.316 µM)
7.02: pIC50 (second compound 1 µM)
6.92: pIC50 (second compound 0.0316 µM)
6.84: pIC50 (second compound 0.01 µM)
active: viability, T/C (second compound 0.01 µM, first compound 0.949 µM) 1.75% | viability, T/C (second compound 0.01 µM, first compound 3 µM) 0.88% | viability, T/C (second compound 0.0316 µM, first compound 0.3 µM) 9.46% | viability, T/C (second compound 0.0316 µM, first compound 0.949 µM) 1.09% | viability, T/C (second compound 0.0316 µM, first compound 3 µM) 0.76% | viability, T/C (second compound 0.1 µM, first compound 0.949 µM) 0.93% | viability, T/C (second compound 0.1 µM, first compound 3 µM) 0.63% | viability, T/C (second compound 0.316 µM, first compound 0.949 µM) 0.85% | viability, T/C (second compound 0.316 µM, first compound 3 µM) 0.95% | viability, T/C (second compound 1 µM, first compound 0.949 µM) 0.81% | viability, T/C (second compound 1 µM, first compound 3 µM) 0.72%

O=C(c1cc(Cc2n[nH]c(=O)c3ccccc23)ccc1F)N1CCN(C(=O)C2CC2)CC1 + Cc1c(S(C)(=O)=O)c(-c2cc(F)cc(N3CCN(c4ccc(NS(=O)(=O)c5ccc(NC(CCN6CCC(C(=O)OCCCP(=O)(O)O)CC6)CSc6ccccc6)c(S(=O)(=O)C(F)(F)F)c5)cc4)CC3)c2)c(-c2ccc(Cl)cc2)n1C(C)C
active: viability, T/C [12] 4.21% | viability, T/C [18] 3.38% | viability, T/C [23] 6.13% | viability, T/C [24] 2.3% | viability, T/C [29] 4.13% | viability, T/C [30] 1.66% | viability, T/C (second compound 3.16 µM, first compound 3.16 µM) 2.51% | viability, T/C (second compound 3.16 µM, first compound 10 µM) 1.72% | viability, T/C (second compound 10 µM, first compound 3.16 µM) 2.29% | viability, T/C (second compound 10 µM, first compound 10 µM) 2.09%
5.93: pIC50 (second compound 3.16 µM)
inactive: viability, T/C [7] 106% | viability, T/C [8] 90.1% | viability, T/C [9] 96.5% | viability, T/C [10] 85.1% | viability, T/C [11] 18.6% | viability, T/C [13] 105% | viability, T/C [14] 93.3% | viability, T/C [15] 89.7% | viability, T/C [16] 92.5% | viability, T/C [17] 13.1% | viability, T/C [19] 95.6% | viability, T/C [20] 92% | viability, T/C [21] 95.7% | viability, T/C [22] 82.2% | viability, T/C [25] 89.7% | viability, T/C [26] 108% | viability, T/C [27] 87.2% | viability, T/C [28] 84.9% | viability, T/C (second compound 3.16 µM, first compound 0.0316 µM) 93.4% | viability, T/C (second compound 3.16 µM, first compound 0.1 µM) 88.7% | viability, T/C (second compound 3.16 µM, first compound 0.316 µM) 83.9% | viability, T/C (second compound 3.16 µM, first compound 1 µM) 57.7% | viability, T/C (second compound 10 µM, first compound 0.0316 µM) 83.7% | viability, T/C (second compound 10 µM, first compound 0.1 µM) 81.1% | viability, T/C (second compound 10 µM, first compound 0.316 µM) 69.8% | viability, T/C (second compound 10 µM, first compound 1 µM) 35.9%
5.73: pIC50 (second compound 0.1 µM)
6.21: pIC50 (second compound 10 µM)
5.74: pIC50 (second compound 0.0316 µM)
5.79: pIC50 (second compound 0.316 µM) | pIC50 (second compound 1 µM)
